Paper PMC11431785, “From In Vitro Promise to In Vivo Reality: An Instructive Account of Infection Model Evaluation of Antimicrobial Peptides” (International Journal of Molecular Sciences, 2024)
Residues, ends and D or L forms follow the SMILES beside them. No end group written: not given here.

Tests used:
[1] = system: Balb/c mice; experiment: Sighting study (tolerance in mice); assay type: in vivo, mouse; details: for tolerance in sighting study: i.p., 30 mg/kg for Ctn[15-34] and Ctn[15-34] re, 3 mg/kg for Ctn re as initial doses; for time to death of an animal: sighting study, one animal
Procedure: To determine the maximum lethal dose and appropriate doses for the main study, a sighting study (Figure 2A) was first conducted. Peptides (Ctn[15-34], Ctn[15-34] re and Ctn re) were administered intraperitoneally (i.p.) at initial doses of 30 mg/kg for Ctn[15-34] and Ctn[15-34] re and 3 mg/kg for Ctn re. If no toxicity signs were observed, the dose was increased. If toxicity signs or death occurred, a lower dose was administered to another animal until an adequate dose was found. After the sighting study was completed, two main studies were performed.
(§1) Nine clinical parameters were assessed by a scoring system (see Table S1). For each parameter a score from 0 to 3 in increasing severity was used. In the sighting (tolerance) study, the clinical score was measured at 10 min, 30 min, 1 h, 2 h, 4 h, 7 h, 24 h, and 48 h after peptide administration. In assays 1 and 2 of the tolerance study, scoring was recorded twice a week for 2 weeks. In the efficacy study, the clinical score was recorded every 2–3 h on day 0 and twice a day on days 1 and 2. An animal was euthanized if it scored 3 on any parameter, or if a combined score of 7 or above was reached.

[2] = system: Balb/c mice; experiment: Tolerance assay 1; assay type: in vivo, mouse; details: single i.p. dose, 30 mg/kg Ctn[15-34], 3 mg/kg Ctn re, five female mice per group, 14 days
Procedure: Assay 1: […] randomly distributed groups of five female mice each were used for Ctn[15-34] (30 mg/kg) and Ctn re (3 mg/kg) and negative control (HBS). Ctn[15-34] re was not included due to spontaneous mortality in the sighting study, even at low concentrations. The peptide was administered i.p., and mice were monitored twice on day 0, once a day until day 4, and then three times a week. The study lasted for 14 days, after which the animals were euthanized, and a systematic necropsy was performed.
(§2) Body weight (BW, g) gain (%) was determined at different stages. In the tolerance assays, BW gain was recorded before inoculation and twice a week for 2 weeks. In the efficacy studies, BW gain was likewise measured before inoculation and then twice a day.
as §1

[3] = cited from earlier work; for t1/2: human serum mixed 1:1 with peptide 1 mM in water, 37 °C with stirring, aliquots 0-1440 min, TCA precipitation, HPLC
From the text: (§3) Table 1 Sequence and properties of peptides in this study. | column: t1/2 (min) || In this work, we focus on crotalicidin (Ctn), a 34-residue AMP from the venom of Crotalus durissus terrificus, a South American pit viper. […] It is, however, slightly toxic to eukaryotic cells, including cancer cells, which makes it a good anticancer peptide (ACP) candidate. Virtual Ctn dissection with elastase yields two fragments, Ctn[1-14] and Ctn[15-34]. While the former (KRFKKFFKKVKKSV) retains the α-helical conformation of Ctn, it loses both the anticance ...

[4] = system: Balb/c mice; experiment: Tolerance assay 2; assay type: in vivo, mouse
Procedure: Assay 2: Two randomly distributed groups of six female mice each were given two different concentrations of Ctn[15-34] (30 and 20 mg/kg). Each animal was treated with each dose three times a day for three days.
as §2, §1

[5] = system: A. baumannii; experiment: Histopathology: hematoxylin and eosin stain and tissue Gram stain; assay type: in vivo, mouse; details: infected and treated mice
Procedure: Following termination of the animals, the following organs were harvested and preserved: right lung, digestive system, pancreas, kidneys, liver, spleen, and brain. These organs were fixed in paraformaldehyde at 4 °C for 24 h.
The tissue processing proceeded through a stepwise procedure. Firstly, the tissues underwent a rinse with formalin for 1.5 h, followed by cleaning with distilled water for 5 min. Subsequently, they were dehydrated using a series of graded ethanol solutions: 80% ethanol for 1 h, 96% ethanol for two consecutive immersions lasting 1 h each, and finally, 100% ethanol for 2 consecutive immersions of 1 h each and an additional immersion for 1.5 h. Following dehydration, the tissues were submerged in xylene for two immersions, each lasting 1.5 h, before being placed in hot liquid paraffin for two consecutive immersions of 1 h each and an additional immersion of 2 h. The treated specimens were embedded in tissue cassettes using a TissueTek embedding console and allowed to cool until the paraffin solidified.
From each paraffin block, […] sections were cut using a microtome (Leica) and mounted on slides. These slides underwent rehydration through a series of graded alcohols: 100% ethanol for 5 min, 85% ethanol for 5 min, 70% ethanol for 5 min, and distilled water. […] After drying, the sections were analyzed using a microscope (Leica DMR, Leica Biosystems, IL, United States). […]

[6] = fragments compared with Ctn; cited from earlier work
From the text: as §3, with “In” for “Table 1 Sequence and properties of peptides in this study. | column: t1/2 (min) || In”

[7] = system: A. baumannii; experiment: Efficacy assay 1 in mouse systemic infection model; assay type: in vivo
Procedure: (§4) A systemic infection model was established in mice, as described before. Briefly, an aliquot from A. baumannii stock in 15% glycerol at −80 °C was taken to culture in 3 mL of LB overnight at 37 °C and 250 rpm. After an OD600 reading to adjust bacterial concentration, the culture was diluted with an identical volume of 10% porcine mucin (an enhancer of bacterial infectivity) to a final 1 × 10^8 CFU/mL concentration. A 10 mL/kg inoculation volume was used for each animal.
Assay 1: A total of 24 mice (12 male, 12 female) randomly distributed into four groups were infected i.p. as described above, then each group was treated with Ctn[15-34] (30 mg/kg), Ctn re (3 mg/kg), colistin (10 mg/kg, positive control) or vehicle (HBS, negative control). Treatment (performed blindly) was applied 2 h after infection in a single i.p. dose. […]
as §1, with “For each parameter a score from 0 to 3 in increasing severity was used.” left out

[8] = system: A. baumannii; experiment: Efficacy assay 2 in mouse systemic infection model; assay type: in vivo
Procedure: as §4
Assay 2: In total, 24 mice (12 male, 12 female) randomly distributed into six groups were infected i.p. as described above, then treated in duplicate groups with Ctn[15-34] (20 mg/kg), colistin (5 mg/kg, positive control) or vehicle (HBS, negative control). Treatment (performed blindly) was applied i.p. 2 h after infection and then every 4 h during day 0, and thrice daily for the next 2 days. All animals were checked for clinical signs twice a day for three days, as described in Table S1. On day 2, animals were euthanized with a 200 mg/kg i.p. dose of pentobarbital.
as §1

[9] = system: A. baumannii; experiment: Colony-forming units (CFU) in mouse tissues; assay type: in vivo
Procedure: CFUs in the spleen and lungs of animals in the efficacy studies were counted after euthanasia. One lung and half of the spleen were extracted from each animal. Animals found dead overnight were excluded. The organs were weighed and homogenized in 1 mL of HBS. Subsequently, six serial 10-fold dilutions were prepared, each dilution seeded on a Petri dish with LB-agar and colonies counted after 16 h incubation at 37 °C. Final CFU counts are expressed relative to organ weight (CFU/g).

[10] = system: A. baumannii; details: MHB, inoculum 5 × 10^5 CFU/mL, 20–22 h at 37 °C, 0.04% BSA and 0.002% acetic acid, duplicate; cited from earlier work
From the text: Table 1 Sequence and properties of peptides in this study. | column: MIC (μM) A. baumannii

[11] = system: 1BR3G human fibroblast cells; details: cytotoxicity, RPMI 2% FBS, Cell Titer Blue, triplicate; cited from earlier work
From the text: Table 1 Sequence and properties of peptides in this study. | column: IC50 (μM)

In the case of CC[C@@H](C)[C@@H](NC(=O)CNC(=O)[C@H](NC(=O)[C@H](NC(=O)[C@H](NC(=O)[C@H]1CCCN1C(=O)[C@H](N)Cc1ccccc1)[C@H](C)CC)[C@H](C)O)C(C)C)C(=O)N[C@@H](C(=O)N[C@H](CCSC)C(=O)N1CCC[C@@H]1C(=O)N[C@H](CCCCN)C(=O)N[C@H](CCCCN)C(=O)N[C@H](Cc1ccccc1)C(=O)N[C@@H](C(=O)N[C@H](CCCCN)C(=O)N[C@H](CCCCN)C(=O)N[C@H](CC(C)C)C(=O)N[C@H](CCCNC(=N)N)C(=O)N[C@H](CCCCN)C(=O)N[C@H](CCCCN)C(=O)N[C@@H](C(=O)N[C@H](CO)C(=O)N[C@H](CCCCN)C(=O)N[C@H](CCCCN)C(=O)N[C@@H](C(=O)N[C@H](CCCCN)C(=O)N[C@H](CCCCN)C(=O)N[C@H](Cc1ccccc1)C(=O)N[C@H](Cc1ccccc1)C(=O)N[C@H](CCCCN)C(=O)N[C@H](CCCCN)C(=O)N[C@H](Cc1ccccc1)C(=O)N[C@H](CCCNC(=N)N)C(=O)N[C@H](CCCCN)C(N)=O)C(C)C)C(C)C)[C@H](C)CC)C(C)C [Ctn re] (HELM PEPTIDE1{[dF].[dP].[dI].[dT].[dV].G.[dI].[dV].[dM].[dP].[dK].[dK].[dF].[dI].[dK].[dK].[dL].[dR].[dK].[dK].[dV].[dS].[dK].[dK].[dV].[dK].[dK].[dF].[dF].[dK].[dK].[dF].[dR].[dK].[am]}$$$$V2.0), the “tolerance in sighting study” value [1] is given as “viable at the predicted dosages”, the “clinical condition in tolerance assay 1” value [2] is given as “most animals showed improved clinical conditions in the following days” and the “t1/2” value [3] is given as 3.52 h.
In the case of CC[C@@H](C)[C@@H](NC(=O)CNC(=O)[C@H](NC(=O)[C@H](NC(=O)[C@H](NC(=O)[C@H]1CCCN1C(=O)[C@H](N)Cc1ccccc1)[C@H](C)CC)[C@H](C)O)C(C)C)C(=O)N[C@@H](C(=O)N[C@H](CCSC)C(=O)N1CCC[C@@H]1C(=O)N[C@H](CCCCN)C(=O)N[C@H](CCCCN)C(=O)N[C@H](Cc1ccccc1)C(=O)N[C@@H](C(=O)N[C@H](CCCCN)C(=O)N[C@H](CCCCN)C(=O)N[C@H](CC(C)C)C(=O)N[C@H](CCCNC(=N)N)C(=O)N[C@H](CCCCN)C(=O)N[C@H](CCCCN)C(N)=O)[C@H](C)CC)C(C)C [Ctn[15-34] re] (HELM PEPTIDE1{[dF].[dP].[dI].[dT].[dV].G.[dI].[dV].[dM].[dP].[dK].[dK].[dF].[dI].[dK].[dK].[dL].[dR].[dK].[dK].[am]}$$$$V2.0), the “time to death of an animal” value ([1]; 5 mg/kg i.p.) is reported as 33 min, the “time to death of an animal” value ([1]; 15 mg/kg i.p.) is reported as at most 6 min and the “time to death of an animal” value ([1]; 30 mg/kg i.p.) is reported as at most 3 min. For the same compound, the “tolerance in sighting study” value [1] was “toxic” and the “t1/2” value [3] was 15.4 h.
With KKRLKKIFKKPMVIGVTIPF-NH2 [Ctn[15-34]] the “tolerance in sighting study” value [1] was “viable at the predicted dosages”, the “clinical condition in tolerance assay 1” value [2] was “most animals showed improved clinical conditions in the following days” and the “clinical signs in tolerance assay 2” value ([4]; 20 mg/kg i.p. thrice daily for 3 days, compared with 30 mg/kg) was “reversible and consistently lower than for the 30 mg/kg group”. The “BW loss during the first 24 h” value ([4]; 30 and 20 mg/kg i.p. thrice daily for three days, both dosage groups, six female mice each) was 6–9%, the “hematoxylin and eosin staining of spleen, lung, liver and kidney” value [5] was “apoptosis was noted in the spleen lymphocytes of one animal” and the “t1/2” value [3] was 12.8 h.
In the case of “KRFKKFFKKVKKSV [Ctn[1-14], fragment of crotalicidin, residues 1-14]”, the “anticancer and antimicrobial properties” value [6] is listed as “loses both the anticancer and antimicrobial properties”.
In the case of “LL-37: AMP named for comparison of half-life [reference compound]”, the half-life ([3]; typical AMP named for comparison with Ctn[15-34], no reference given) is listed as 1 h.
For colistin, the “clinical signs of treated infected animals” value ([7]; efficacy assay 1, colistin 10 mg/kg single i.p. dose) was “weight loss on the first day with subsequent recovery”, the survival rate ([7]; efficacy assay 1, single i.p. dose 2 h after infection, colistin 10 mg/kg, 3 days) was 100% and the “clinical signs of treated infected animals” value ([8]; efficacy study 2, thrice daily dose of colistin, compared to the previous study) was “Increased toxicity”. The “female animals surviving at the endpoint” value ([8]; efficacy study 2, thrice daily i.p. dosing, female mice) was 75%, the “male animals surviving at the endpoint” value ([8]; efficacy study 2, thrice daily i.p. dosing, male mice) was 50% and the “CFU/g in left lung and spleen” value ([9]; after both efficacy studies, positive control group) was 10^1–10^2 CFU/g. The “bacterial presence in the spleen or lungs” value ([9]; efficacy study 2, animals not surviving the thrice daily colistin dosage) was “nearly negligible” and the “Gram stain, bacterial load in spleen, lung, liver and kidney” value [5] was “no evidence of bacterial survival”.
In the case of crotalicidin [Ctn], the “MIC (μM) A. baumannii” value [10] is given as 0.78 µM, the IC50 [11] is given as 14.3 µM and the “t1/2” value [3] is given as 1.18 h.
